{"source": "patent US9718835B2", "about": "(China Medical University Hospital, priority 2013, dated 2017)", "test_system": "Topo II", "test": "Topo II activity assay, nuclear extracts of treated A-549 cells, catenated kDNA", "format": "cell-based, human", "from_the_text": "First, we determined the effect of 9a on cell cycle distribution using flow cytometry analysis. […] Because it has been shown that 1-Topo I-DNA covalent complexes enhance the transcription-dependent degradation of Topo I via a 26S proteasome pathway,^32 the effects of 9a on the expression levels of Topo I and Topo II were investigated. […] Compound 9a acts directly on Topo I and results in the accumulation of covalent Topo I-DNA complexes followed by proteasomal Topo I degradation, which is the same effect as 1 and contributes to 9a's cytotoxicity.\nTopo I activity test was performed using an assay kit (TopoGEN) according to the manufacturer's instructions. Nuclear extracts from 9a-treated A-549 cells were incubated with supercoiled DNA (for Topo I) or catenated kDNA (for Topo II) for 30 min at 37° C. Reaction mixture was separated by is 1% agarose gel in 1×TAE buffer. The gel was stained with ethidium bromide and photographed using Gel Doc XR (Bio-Rad).", "data": [{"compound": "CC[C@@]1(OC(=O)CNC(Cc2ccc(OC)cc2)=NS(=O)(=O)c2ccc(C)cc2)C(=O)OCc2c1cc1n(c2=O)Cc2cc3ccccc3nc2-1", "note": "[Compound 9a]", "values": [{"measurement": "Topo II decatenation of kDNA", "value": "failed to decatenate kineoplast DNA"}]}]}
